Source: PubChem BioAssay (NCI)
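Method: 48-hour compound exposure of cells in 96-well plates, five concentrations, linear interpolation of endpoints. TGI: total growth inhibition.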

Columns and labels:
Test in all cases: inhibition of tumour cell growth, NCI panel, 48 h
CAKI-1 renal = test system: CAKI-1 renal
HL-60(TB) leukemia = test system: HL-60(TB) leukemia
SR leukemia = test system: SR leukemia
SF-539 CNS = test system: SF-539 CNS
K-562 leukemia = test system: K-562 leukemia
DU-145 prostate = test system: DU-145 prostate
SW-620 colon = test system: SW-620 colon
SNB-19 CNS = test system: SNB-19 CNS
BT-549 breast = test system: BT-549 breast
HCT-116 colon = test system: HCT-116 colon
HS 578T breast = test system: HS 578T breast
MDA-N = test system: MDA-N
LOX IMVI melanoma = test system: LOX IMVI melanoma
A549 NSCLC = test system: A549 NSCLC
SN12C renal = test system: SN12C renal
M14 melanoma = test system: M14 melanoma
SK-MEL-2 melanoma = test system: SK-MEL-2 melanoma
KM12 colon = test system: KM12 colon
NCI/ADR-RES ovarian = test system: NCI/ADR-RES ovarian
SNB-75 CNS = test system: SNB-75 CNS
PC-3 prostate = test system: PC-3 prostate
ACHN renal = test system: ACHN renal
T-47D breast = test system: T-47D breast
OVCAR-8 ovarian = test system: OVCAR-8 ovarian
COLO 205 colon = test system: COLO 205 colon
RXF 393 renal = test system: RXF 393 renal
HOP-62 NSCLC = test system: HOP-62 NSCLC
UACC-257 melanoma = test system: UACC-257 melanoma
IGROV1 ovarian = test system: IGROV1 ovarian
SF-268 CNS = test system: SF-268 CNS
OVCAR-4 ovarian = test system: OVCAR-4 ovarian
MALME-3M melanoma = test system: MALME-3M melanoma
SK-MEL-28 melanoma = test system: SK-MEL-28 melanoma
SK-MEL-5 melanoma = test system: SK-MEL-5 melanoma
OVCAR-5 ovarian = test system: OVCAR-5 ovarian
A498 renal = test system: A498 renal
MOLT-4 leukemia = test system: MOLT-4 leukemia
NCI-H226 lung = test system: NCI-H226 lung
CCRF-CEM leukemia = test system: CCRF-CEM leukemia
HCC-2998 colon = test system: HCC-2998 colon
HT29 colon = test system: HT29 colon
MDA-MB-435 = test system: MDA-MB-435
U251 CNS = test system: U251 CNS
786-0 renal = test system: 786-0 renal
HOP-92 NSCLC = test system: HOP-92 NSCLC
NCI-H460 lung = test system: NCI-H460 lung
RPMI-8226 leukemia = test system: RPMI-8226 leukemia
HCT-15 colon = test system: HCT-15 colon
MDA-MB-231 breast = test system: MDA-MB-231 breast
SK-OV-3 ovarian = test system: SK-OV-3 ovarian
NCI-H23 lung = test system: NCI-H23 lung
UACC-62 melanoma = test system: UACC-62 melanoma
MCF7 breast = test system: MCF7 breast
OVCAR-3 ovarian = test system: OVCAR-3 ovarian
SF-295 CNS = test system: SF-295 CNS
TK-10 renal = test system: TK-10 renal
EKVX NSCLC = test system: EKVX NSCLC
UO-31 renal = test system: UO-31 renal
NCI-H522 lung = test system: NCI-H522 lung

For `N=c1oc2ccccc2cc1C(=O)Nc1cccc2ccccc12`, the TGI (CAKI-1 renal) was > 100 µM, the TGI (HL-60(TB) leukemia) was > 100 µM and the TGI (SR leukemia) was > 100 µM. The TGI (SF-539 CNS) was > 100 µM, the TGI (K-562 leukemia) was > 100 µM and the TGI (DU-145 prostate) was > 100 µM. The TGI (SW-620 colon) was > 100 µM, the TGI (SNB-19 CNS) was > 100 µM and the TGI (BT-549 breast) was > 100 µM. The TGI (HCT-116 colon) was > 100 µM, the TGI (HS 578T breast) was > 100 µM and the TGI (MDA-N) was > 100 µM. The TGI (LOX IMVI melanoma) was > 100 µM, the TGI (A549 NSCLC) was > 100 µM and the TGI (SN12C renal) was > 100 µM. The TGI (M14 melanoma) was > 100 µM, the TGI (SK-MEL-2 melanoma) was > 100 µM and the TGI (KM12 colon) was > 100 µM. For the same compound, the TGI (NCI/ADR-RES ovarian) was > 100 µM, the TGI (SNB-75 CNS) was > 100 µM and the TGI (PC-3 prostate) was > 100 µM. For the same compound, the TGI (ACHN renal) was > 100 µM, the TGI (T-47D breast) was > 100 µM and the TGI (OVCAR-8 ovarian) was > 100 µM. For the same compound, the TGI (COLO 205 colon) was > 100 µM, the TGI (RXF 393 renal) was > 100 µM and the TGI (HOP-62 NSCLC) was > 100 µM. For the same compound, the TGI (UACC-257 melanoma) was > 100 µM, the TGI (IGROV1 ovarian) was > 100 µM and the TGI (SF-268 CNS) was > 100 µM. The TGI (OVCAR-4 ovarian) was > 100 µM, the TGI (MALME-3M melanoma) was > 100 µM and the TGI (SK-MEL-28 melanoma) was > 100 µM. For the same compound, the TGI (SK-MEL-5 melanoma) was > 100 µM, the TGI (OVCAR-5 ovarian) was > 100 µM and the TGI (A498 renal) was > 100 µM. For the same compound, the TGI (MOLT-4 leukemia) was > 100 µM, the TGI (NCI-H226 lung) was > 100 µM and the TGI (CCRF-CEM leukemia) was > 100 µM. For the same compound, the TGI (HCC-2998 colon) was > 100 µM, the TGI (HT29 colon) was > 100 µM and the TGI (MDA-MB-435) was > 100 µM. The TGI (U251 CNS) was > 100 µM, the TGI (786-0 renal) was > 100 µM and the TGI (HOP-92 NSCLC) was > 100 µM. The TGI (NCI-H460 lung) was > 100 µM, the TGI (RPMI-8226 leukemia) was > 100 µM and the TGI (HCT-15 colon) was > 100 µM. The TGI (MDA-MB-231 breast) was > 100 µM, the TGI (SK-OV-3 ovarian) was > 100 µM and the TGI (NCI-H23 lung) was > 100 µM. For the same compound, the TGI (UACC-62 melanoma) was > 100 µM, the TGI (MCF7 breast) was > 100 µM and the TGI (OVCAR-3 ovarian) was > 100 µM.

For `CN1CCN(c2cc3nc(-c4ccc(Cl)cc4)[nH]c3cc2F)CC1`, the TGI (CAKI-1 renal) was 73.4 µM, the TGI (SF-295 CNS) was 28.8 µM and the TGI (SR leukemia) was > 100 µM. For the same compound, the TGI (K-562 leukemia) was 28.7 µM, the TGI (DU-145 prostate) was 83.3 µM and the TGI (SW-620 colon) was > 64.4 µM. The TGI (SNB-19 CNS) was > 81.8 µM, the TGI (BT-549 breast) was 31.1 µM and the TGI (HCT-116 colon) was > 54.4 µM. For the same compound, the TGI (HS 578T breast) was 42.6 µM, the TGI (MDA-N) was 50.4 µM and the TGI (LOX IMVI melanoma) was > 65.6 µM. The TGI (A549 NSCLC) was > 59 µM, the TGI (SN12C renal) was > 100 µM and the TGI (M14 melanoma) was 8.4 µM. For the same compound, the TGI (SK-MEL-2 melanoma) was 34.5 µM, the TGI (KM12 colon) was > 45.2 µM and the TGI (NCI/ADR-RES ovarian) was 67.6 µM. The TGI (SNB-75 CNS) was 50.1 µM, the TGI (PC-3 prostate) was 40.8 µM and the TGI (ACHN renal) was 29.8 µM. The TGI (TK-10 renal) was 15.4 µM, the TGI (T-47D breast) was 65.7 µM and the TGI (OVCAR-8 ovarian) was > 100 µM. The TGI (COLO 205 colon) was 51.1 µM, the TGI (RXF 393 renal) was 30.9 µM and the TGI (HOP-62 NSCLC) was 30.6 µM. The TGI (UACC-257 melanoma) was 26.2 µM, the TGI (IGROV1 ovarian) was 36.1 µM and the TGI (SF-268 CNS) was 51.3 µM. For the same compound, the TGI (OVCAR-4 ovarian) was > 62.7 µM, the TGI (MALME-3M melanoma) was 23.4 µM and the TGI (SK-MEL-28 melanoma) was 30.8 µM. For the same compound, the TGI (EKVX NSCLC) was 72.3 µM, the TGI (SK-MEL-5 melanoma) was 35.5 µM and the TGI (OVCAR-5 ovarian) was 48.9 µM. The TGI (UO-31 renal) was 20.6 µM, the TGI (A498 renal) was 47.4 µM and the TGI (MOLT-4 leukemia) was 41.1 µM. For the same compound, the TGI (NCI-H226 lung) was 33.9 µM, the TGI (CCRF-CEM leukemia) was 82.8 µM and the TGI (HCC-2998 colon) was 16.7 µM. The TGI (MDA-MB-435) was 32.1 µM, the TGI (U251 CNS) was > 75.9 µM and the TGI (786-0 renal) was 67.2 µM. For the same compound, the TGI (HOP-92 NSCLC) was > 70.4 µM, the TGI (NCI-H460 lung) was > 53.9 µM and the TGI (RPMI-8226 leukemia) was 41.4 µM. The TGI (HCT-15 colon) was 17.9 µM, the TGI (MDA-MB-231 breast) was 60.8 µM and the TGI (NCI-H522 lung) was 32 µM. The TGI (SK-OV-3 ovarian) was 59.5 µM, the TGI (NCI-H23 lung) was 34.2 µM and the TGI (UACC-62 melanoma) was 18.9 µM. For the same compound, the TGI (MCF7 breast) was > 45.2 µM and the TGI (OVCAR-3 ovarian) was 25.7 µM.
